Reference: patent US20240116985A1, “STAPLED PEPTIDES AND METHODS THEREOF” (priority 2020, published 2024)
In brackets after ≈: the same amount, converted by molar mass. Where two headings read alike, the source gives them in different places.

What was measured:
Solubility in PBS = type: physicochemical
Procedure: After ultracentrifugation of the PBS solution, the supernatant was analyzed by HPLC and compared to an HPLC injection 50 μM peptide DMSO solution. Solubility was determined by: [(Area of PBS peak)/(Area of DMSO peak)]*50 uM.

CHI Log D procedure = type: physicochemical; details: for chromatographic logD: pH 7.4, CHI Log D
[1] = molecular target: T1, beta-catenin/TCF4 engagement (Homo sapiens, UniProt P35222); assay: Nano-BRET target engagement assay (B-cat-Halo & TCF4-Luc in HEK293 cells); type: cell-based; details: for inhibition at 10 µM: HEK293, @ 10 uM, read-out: NanoBRET % inh @ 10 uM
T1 construct: expressed in transfected cells; host or cells: HEK293
T1 sequence (P35222 1-781): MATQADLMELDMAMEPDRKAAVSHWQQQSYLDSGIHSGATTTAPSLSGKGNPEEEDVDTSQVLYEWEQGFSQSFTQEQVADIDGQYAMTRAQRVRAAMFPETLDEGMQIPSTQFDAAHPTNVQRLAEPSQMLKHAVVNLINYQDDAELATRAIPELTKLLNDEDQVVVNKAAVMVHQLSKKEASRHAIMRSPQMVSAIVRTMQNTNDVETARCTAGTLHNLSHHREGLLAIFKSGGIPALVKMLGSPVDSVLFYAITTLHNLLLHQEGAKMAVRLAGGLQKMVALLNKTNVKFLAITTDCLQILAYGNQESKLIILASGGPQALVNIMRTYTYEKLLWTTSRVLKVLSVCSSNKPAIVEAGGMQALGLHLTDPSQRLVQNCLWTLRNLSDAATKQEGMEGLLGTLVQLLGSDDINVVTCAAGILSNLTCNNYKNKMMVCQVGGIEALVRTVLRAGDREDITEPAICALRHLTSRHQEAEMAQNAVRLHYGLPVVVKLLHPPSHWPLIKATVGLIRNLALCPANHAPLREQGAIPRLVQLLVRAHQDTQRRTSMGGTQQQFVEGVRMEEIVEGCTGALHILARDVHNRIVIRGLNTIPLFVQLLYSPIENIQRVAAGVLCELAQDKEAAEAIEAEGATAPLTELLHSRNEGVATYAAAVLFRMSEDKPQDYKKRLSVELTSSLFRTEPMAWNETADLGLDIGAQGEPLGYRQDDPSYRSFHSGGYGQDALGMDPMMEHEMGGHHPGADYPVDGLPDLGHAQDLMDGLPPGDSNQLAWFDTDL

[2] = molecular target: T2, full-length beta-Catenin (Uniprot ID P35222) (Homo sapiens, UniProt P35222); assay: Fluorescence polarization IC50 (beta-catenin / 5FAM-TCF4 10-53 competition); type: binding
T2 construct: 10 nM full-length beta-Catenin (Uniprot ID P35222)
T2 sequence (P35222 1-781): T1 sequence (P35222 1-781)

[3] = fluorescence polarization, beta-catenin, read-out: FP EC50
[4] = absolute IC50, read-out: NanoBRET Abs IC50
[5] = Abs IC50, read-out: NanoBRET Abs IC50

Row | Compound | CHI Log D (CHI Log D procedure; pH 7.4) | IC50 ([1]; read-out: NanoBRET Abs IC50) [nM] | IC50 ([2]; read-out: beta-Catenin FP IC50) [nM] | other results
1 | CC(=O)N1CCC[C@]12CC=CCCCC1(CCCC=CCCCOC(=O)N3CC[C@@](C(=O)N[C@@H](Cc4ccsc4)C(=O)N[C@@H](Cc4csc5ccccc45)C(=O)N[C@@H](CCC(N)=O)C(=O)NC4CC4)(C3)NC(=O)[C@H](CC(N)=O)NC(=O)[C@H](Cc3ccccc3)NC(=O)[C@H](C)NC(=O)[C@H](C)NC(=O)[C@H](CC(=O)O)NC(=O)[C@H](CC(=O)O)NC1=O)NC(=O)[C@H](CC(C)(C)C)NC(=O)[C@H](CC(=O)O)NC2=O (stereo partly drawn) [I-1375, PL3-Asp-Npg-B5-Asp-Asp-Ala-Ala-Phe-Asn-PyrS2-3Thi-BztA-Gln-NHCyPr] | – | – | – | Solubility (Solubility in PBS): 50 µM (≈ 97.9 µg/mL)
2 | CC(=O)N1CCC[C@]12CC=CCCCC1(CCCC=CCCCCCC[C@@](C)(C(=O)N[C@@H](Cc3ccccc3Cl)C(=O)N[C@@H](Cc3csc4ccccc34)C(=O)N[C@@H](CCC(N)=O)C(N)=O)NC(=O)[C@H]([C@@H](C)O)NC(=O)[C@H](Cc3ccccc3)NC(=O)[C@H](C)NC(=O)[C@H](C)NC(=O)[C@H](CC(=O)O)NC(=O)[C@H](CC(=O)O)NC1=O)NC(=O)[C@H](CC(C)(C)C)NC(=O)[C@H](CC(=O)O)NC2=O (stereo partly drawn) [I-1086, Ac-PL3-Asp-Npg-B5-Asp-Asp-Ala-Ala-Phe-Thr-S8-2C1F-BztA-Gln-NH2] | 2.709 | 10100 | 12 | IC50 [2, 3]: 12 nM
3 | CC[C@H](C)[C@@H]1NC(=O)[C@H](CN(CC(=O)O)CC(F)(F)F)NC(=O)[C@H](CC(=O)O)NC(=O)C2(CCCC=CCCCOC(=O)N3CC[C@@](C(=O)N[C@@H](Cc4ccccc4Cl)C(=O)N[C@@H](Cc4csc5ccccc45)C(=O)N[C@@H](CCC(N)=O)C(N)=O)(C3)NC(=O)[C@H](CC(N)=O)NC(=O)[C@H](Cc3ccccc3)NC(=O)[C@H](C)NC1=O)CCCC=CC[C@]1(CCCN1C(C)=O)C(=O)N[C@@H](CC(=O)O)C(=O)N[C@@H](CC(C)(C)C)C(=O)N2 (stereo partly drawn) [I-1010, Ac-PL3-Asp-Npg-B5-Asp-TfeGA-Ile-Ala-Phe-Asn-PyrS2-2C1F-BztA-Gln-NH2] | – | – | 8 | chromatographic logD (CHI Log D procedure): 2.36; IC50 [1, 4]: 13300 nM
4 | CC(=O)N1CCC[C@]12CC=CCCCC1(CCCC=CCCCCCC[C@@](C)(C(=O)N[C@@H](Cc3ccccc3Br)C(=O)N[C@@H](Cc3csc4ccccc34)C(=O)N[C@@H](CCC(N)=O)C(N)=O)NC(=O)[C@H](CC(N)=O)NC(=O)[C@H](Cc3ccccc3)NC(=O)[C@H](C)NC(=O)[C@H](C)NC(=O)[C@H](CN(CC(=O)O)CC(F)(F)F)NC(=O)[C@H](CC(=O)O)NC1=O)NC(=O)[C@H](CC(C)(C)C)NC(=O)[C@H](CC(=O)O)NC2=O (stereo partly drawn) [I-932, Ac-PL3-Asp-Npg-B5-Asp-TfeGA-Ala-Ala-Phe-Asn-S8-2BrF-BztA-Gln-NH2] | – | – | 35 | chromatographic logD (CHI Log D procedure): 2.77; IC50 [1, 4]: 11400 nM
5 | CC(=O)N1CCC[C@]12CC=CCCCC1(CCCC=CCCCOC(=O)N3CC[C@@](C(=O)N[C@@H](Cc4ccsc4)C(=O)N[C@@H](Cc4csc5ccccc45)C(=O)N[C@@H](CCC(N)=O)C(=O)NCCCCCCN)(C3)NC(=O)[C@H](CC(N)=O)NC(=O)[C@H](Cc3ccccc3)NC(=O)[C@H](C)NC(=O)[C@H](C)NC(=O)[C@H](CC(=O)O)NC(=O)[C@H](CC(=O)O)NC1=O)NC(=O)[C@H](CC(C)(C)C)NC(=O)[C@H](CC(=O)O)NC2=O (stereo partly drawn) [I-882, Ac-PL3-Asp-Npg-B5-Asp-Asp-Ala-Ala-Phe-Asn-PyrS2-3Thi-BztA-Gln-6AmHex] | 2.028 | 41400 | 22 | IC50 ([1]; read-out: NanoBRET IC50): 22500 nM; IC50 [2, 3]: 22 nM
6 | CC(=O)N1CCC[C@]12CC=CCCCC1(CCCC=CCCCCCC[C@@](C)(C(=O)N[C@@H](Cc3ccccc3)C(=O)N[C@@H](Cc3csc4ccccc34)C(=O)N[C@@H](CC(N)=O)C(N)=O)NC(=O)[C@H](CC(N)=O)NC(=O)[C@H](Cc3ccccc3)NC(=O)[C@H](C)NC(=O)[C@H](C)NC(=O)[C@H](CCC(=O)O)NC(=O)[C@H](CC(=O)O)NC1=O)NC(=O)[C@H](CC(C)C)NC(=O)[C@H](CC(=O)O)NC2=O (stereo partly drawn) [I-752, Ac-PL3-Asp-Leu-B5-Asp-Glu-Ala-Ala-Phe-Asn-S8-Phe-BztA-Asn-NH2] | 2.419 | – | – | IC50 [1, 5]: 9900 nM; inhibition at 10 µM [1]: 53%; IC50 [1, 4]: 9900 nM; IC50 ([2]; fluorescence polarization, read-out: beta-Catenin FP IC50): 16 nM; IC50 ([2]; read-out: FP EC50): 16 nM
7 | CC(=O)N1CCC[C@]12CC=CCCCC1(CCCC=CCCCOC(=O)N3CC[C@@](C(=O)N[C@@H](Cc4ccsc4)C(=O)N[C@@H](Cc4csc5ccccc45)C(=O)N[C@@H](Cc4c[nH]cn4)C(N)=O)(C3)NC(=O)[C@H](CC(N)=O)NC(=O)[C@H](Cc3ccccc3)NC(=O)[C@H](C)NC(=O)[C@H](C)NC(=O)[C@H](CN(CC(=O)O)CC(F)(F)F)NC(=O)[C@H](CC(=O)O)NC1=O)NC(=O)[C@H](CC(C)(C)C)NC(=O)[C@H](CC(=O)O)NC2=O (stereo partly drawn) [I-769, Ac-PL3-Asp-Npg-B5-Asp-TfeGA-Ala-Ala-Phe-Asn-PyrS2-3Thi-BztA-His-NH2] | 2.307 | 13000 | 5 | IC50 [1, 5]: 13000 nM
8 | CC(=O)N1CCC[C@]12CC=CCCCC1(CCCC=CCCCOC(=O)N3CC[C@@](C(=O)N[C@@H](Cc4ccsc4)C(=O)N[C@@H](Cc4csc5ccccc45)C(=O)N[C@@H](CCC(N)=O)C(N)=O)(C3)NC(=O)[C@H](CC(N)=O)NC(=O)[C@H](Cc3ccccc3)NC(=O)[C@H](C)NC(=O)[C@H](C)NC(=O)[C@H](CN(CC(=O)O)CC(F)(F)F)NC(=O)[C@H](CC(=O)O)NC1=O)NC(=O)[C@H](CC(C)(C)C)NC(=O)[C@H](CC(=O)O)NC2=O (stereo partly drawn) [I-761, Ac-PL3-Asp-Npg-B5-Asp-TfeGA-Ala-Ala-Phe-Asn-PyrS2-3Thi-BztA-Gln-NH2] | 2.207 | – | 5 | logD (CHI Log D procedure; pH 7.4): 2.2; inhibition at 10 µM [1]: 63.4%; IC50 ([1]; read-out: NanoBRET IC50): 5000 nM; IC50 ([2]; read-out: bCat FP IC50): < 5 nM
9 | CC(=O)N1CCC[C@]12CC=CCCCC1(CCCC=CCCCOC(=O)N3CC[C@@](C(=O)N[C@@H](Cc4ccsc4)C(=O)N[C@@H](Cc4csc5ccccc45)C(N)=O)(C3)NC(=O)[C@H](CC(N)=O)NC(=O)[C@H](Cc3ccccc3)NC(=O)[C@H](C)NC(=O)[C@H](C)NC(=O)[C@H]([C@@H](C)O)NC(=O)[C@H](CC(=O)O)NC1=O)NC(=O)[C@H](CC(C)(C)C)NC(=O)[C@H](CC(=O)O)NC2=O (stereo partly drawn) [I-859, Ac-PL3-Asp-Npg-B5-Asp-Thr-Ala-Ala-Phe-Asn-PyrS2-3Thi-BztA-NH2] | 2.711 | > 20000 | 36 | IC50 [2, 3]: 36 nM
10 | CC(=O)N1CCC[C@]12CC=CCCCC1(CCCC=CCCCCOC(=O)N3CC[C@@](C(=O)N[C@@H](Cc4ccsc4)C(=O)N[C@@H](Cc4csc5ccccc45)C(=O)N[C@@H](CCC(N)=O)C(N)=O)(C3)NC(=O)[C@H](CC(N)=O)NC(=O)[C@H](Cc3ccccc3)NC(=O)[C@H](C)NC(=O)[C@H](C)NC(=O)[C@H](CC(=O)O)NC(=O)[C@H](CC(=O)O)NC1=O)NC(=O)[C@H](CC(C)(C)C)NC(=O)[C@H](CC(=O)O)NC2=O (stereo partly drawn) [I-768, Ac-PL3-Asp-Npg-B5-Asp-Asp-Ala-Ala-Phe-Asn-PyrS3-3Thi-BztA-Gln-NH2] | 2.043 | 31400 | 9 | IC50 ([2]; read-out: FP EC50): 9 nM
11 | CC(=O)N1CCC[C@]12CC=CCCCC1(CCCC=CCCCOC(=O)N3CC[C@@](C(=O)N[C@@H](Cc4ccsc4)C(=O)N[C@@H](Cc4csc5ccccc45)C(=O)N[C@@H](Cc4c[nH]cn4)C(N)=O)(C3)NC(=O)[C@H](CCC(N)=O)NC(=O)[C@H](Cc3ccccc3)NC(=O)[C@H](C)NC(=O)[C@H](C)NC(=O)[C@H](CC(=O)O)NC(=O)[C@H](CC(=O)O)NC1=O)NC(=O)[C@H](CC(C)(C)C)NC(=O)[C@H](CC(=O)O)NC2=O (stereo partly drawn) [I-772, Ac-PL3-Asp-Npg-B5-Asp-Asp-Ala-Ala-Phe-Gln-PyrS2-3Thi-BztA-His-NH2] | 2.069 | > 20000 | 7 | IC50 ([2]; read-out: FP EC50): 7 nM
12 | COCCOCCOCCOCCC(=O)NCCCC[C@@H]1NC(=O)[C@H](C)NC(=O)[C@H](CC(=O)O)NC(=O)[C@H](CC(=O)O)NC(=O)C2(CCCC=CCCCOC(=O)N3CC[C@@](C(=O)N[C@@H](Cc4ccsc4)C(=O)N[C@@H](Cc4csc5ccccc45)C(=O)N[C@@H](CCC(N)=O)C(N)=O)(C3)NC(=O)[C@H](CC(N)=O)NC(=O)[C@H](Cc3ccccc3)NC1=O)CCCC=CC[C@]1(CCCN1C(C)=O)C(=O)N[C@@H](CC(=O)O)C(=O)N[C@@H](CC(C)(C)C)C(=O)N2 (stereo partly drawn) [I-894, Ac-PL3-Asp-Npg-B5-Asp-Asp-Ala-[mPEG4]Lys-Phe-Asn-PyrS2-3Thi-BztA-Gln-NH2] | – | > 20000 | 15 | chromatographic logD (CHI Log D procedure): 1.45
